target: Tyrosine-protein kinase SYK (Homo sapiens) (UniProt P43405); experiment: Inhibition of human recombinant full-length Syk using poly-GT as substrate after 40 mins by radioactive filtration assay

Compared with Cc1ccnc(Nc2cccc(-c3cccc(CN)c3)n2)c1, Cc1ccnc(Nc2cccc(-c3cccc(CCN)c3)n2)c1 is 10-fold lower in IC50: 1670 nM for the first, 160 nM for the second. The second is the more potent here.

First: O=C(Nc1cc(Nc2cnccn2)nc(-c2ccnc(N3CCNCC3)c2)c1)c1ccccc1
Second: O=C(Nc1cc(Nc2cnccn2)nc(-c2ccnc(N3CCNCC3)c2)c1)c1cccnc1
The IC50 of the first is 4.7-fold higher: 28 nM for the first, 6 nM for the second. The second is the more potent here.

First: Cc1ccnc(Nc2cccc(-c3ccnc(NCCO)c3)n2)c1
Second: Cc1ccnc(Nc2cccc(-c3ccnc(NCCN)c3)n2)c1
The IC50 of the first is 9.3-fold higher: 1870 nM for the first, 200 nM for the second.

Cc1ccnc(Nc2cccc(-c3cccnc3)n2)c1 and Cc1ccnc(Nc2cccc(-c3cccc(N)c3)n2)c1 are within 1.5-fold of each other in IC50: 2700 nM for the first, 3240 nM for the second.

First: FC(F)(F)c1ccnc(Nc2cccc(-c3ccnc(N4CCNCC4)c3)n2)c1
Second: Cc1ccnc(Nc2cccc(-c3ccnc(N4CCNCC4)c3)n2)c1
The IC50 of the first is 7.8-fold lower: 1.8 nM for the first, 14 nM for the second.

CNc1cc(Nc2cnccn2)nc(-c2ccnc(N3CCNCC3)c2)c1 and Nc1cc(Nc2cnccn2)nc(-c2ccnc(N3CCNCC3)c2)c1 are the same in IC50: 4 nM for the first, 4 nM for the second.

Cc1cc(C(=O)Nc2cc(Nc3cnccn3)nc(-c3ccnc(N4CCNCC4)c3)c2)n(C)n1 and O=C(Nc1cc(Nc2cnccn2)nc(-c2ccnc(N3CCNCC3)c2)c1)c1cncnc1 are within 1.5-fold of each other in IC50: 7 nM for the first, 9 nM for the second.

Going from Cc1ccnc(Nc2cccc(-c3ccnc(N4CCC(N)CC4)c3)n2)c1 to Cc1ccnc(Nc2cccc(-c3ccnc(N4CCC(N)C4)c3)n2)c1 (configuration not stated), the IC50 rises from 114 nM to 450 nM (3.9-fold). The first is the more potent here.

First: Cc1ccnc(Nc2cccc(-c3ccnc(NCCCN)c3)n2)c1
Second: Cc1ccnc(Nc2cccc(-c3cccc(NCCN)c3)n2)c1
The IC50 of the first is 5.8-fold higher: 528 nM for the first, 91 nM for the second. The second is the more potent here.

c1cc(-c2cccc(Nc3cnccn3)n2)cc(N2CCNCC2)c1 and c1cc(Nc2cnccn2)nc(-c2ccnc(N3CCNCC3)c2)c1 are within 1.5-fold of each other in IC50: 43 nM for the first, 62 nM for the second.

Oc1ccc(CNc2cc(Nc3cnccn3)nc(-c3ccnc(N4CCNCC4)c3)c2)cc1 and O=C(O)c1ccc(C(=O)Nc2cc(Nc3cnccn3)nc(-c3ccnc(N4CCNCC4)c3)c2)cc1 are the same in IC50: 8 nM for the first, 8 nM for the second.

Compared with O=C(Cc1cccnc1)Nc1cc(Nc2cnccn2)nc(-c2ccnc(N3CCNCC3)c2)c1, O=C(Nc1cc(Nc2cnccn2)nc(-c2ccnc(N3CCNCC3)c2)c1)c1ccc(C(=O)O)nc1 is 2.5-fold higher in IC50: 4 nM for the first, 10 nM for the second. The first is the more potent here.

O=C(Nc1cc(Nc2cnccn2)nc(-c2ccnc(N3CCNCC3)c2)c1)C1CCNCC1 and CC(=O)N1CCC(C(=O)Nc2cc(Nc3cnccn3)nc(-c3ccnc(N4CCNCC4)c3)c2)CC1 are within 1.5-fold of each other in IC50: 4 nM for the first, 5 nM for the second.

For Cc1ccnc(Nc2cccc(-c3ccnc(N4CCCNCC4)c3)n2)c1, the IC50 was 27 nM.

Source: BindingDB's records for doi:10.1016/j.bmcl.2012.07.045 (Rhône-Poulenc Rorer, 2012)
